Reference: ChEMBL document CHEMBL1126496, “4-Aminomethyl chromans: dependence of serotonin and dopamine binding upon aromatic ring substitution” (Bioorg Med Chem Lett, 1993)
Each block holds one compound with its values, some of them ahead of it.

Assays:
[1] = biological target: T1, 5-hydroxytryptamine receptor 1A (Homo sapiens, UniProt P08908); experiment: Compound was tested for its binding affinity against 5-hydroxytryptamine 1A receptor using [3H]8-OH-DPAT radioligand
T1 sequence (P08908 whole entry): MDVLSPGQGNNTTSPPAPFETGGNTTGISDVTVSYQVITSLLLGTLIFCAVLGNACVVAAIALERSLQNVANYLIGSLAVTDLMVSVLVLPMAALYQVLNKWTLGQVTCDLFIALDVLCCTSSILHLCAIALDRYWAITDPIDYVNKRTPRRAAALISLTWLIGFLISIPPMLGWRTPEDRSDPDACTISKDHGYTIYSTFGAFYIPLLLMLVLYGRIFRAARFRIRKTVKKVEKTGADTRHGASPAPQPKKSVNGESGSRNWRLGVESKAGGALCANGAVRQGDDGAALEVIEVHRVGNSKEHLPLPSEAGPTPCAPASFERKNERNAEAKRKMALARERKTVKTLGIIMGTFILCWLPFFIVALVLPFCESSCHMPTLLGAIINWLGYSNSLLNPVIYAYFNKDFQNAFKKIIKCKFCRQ

D(2) dopamine receptor = D(2) dopamine receptor (Rattus norvegicus, UniProt P61169); experiment: Compound was tested for its binding affinity against Dopamine receptor D2 using [3H]raclopride radioligand
Sequence of D(2) dopamine receptor (P61169 whole entry): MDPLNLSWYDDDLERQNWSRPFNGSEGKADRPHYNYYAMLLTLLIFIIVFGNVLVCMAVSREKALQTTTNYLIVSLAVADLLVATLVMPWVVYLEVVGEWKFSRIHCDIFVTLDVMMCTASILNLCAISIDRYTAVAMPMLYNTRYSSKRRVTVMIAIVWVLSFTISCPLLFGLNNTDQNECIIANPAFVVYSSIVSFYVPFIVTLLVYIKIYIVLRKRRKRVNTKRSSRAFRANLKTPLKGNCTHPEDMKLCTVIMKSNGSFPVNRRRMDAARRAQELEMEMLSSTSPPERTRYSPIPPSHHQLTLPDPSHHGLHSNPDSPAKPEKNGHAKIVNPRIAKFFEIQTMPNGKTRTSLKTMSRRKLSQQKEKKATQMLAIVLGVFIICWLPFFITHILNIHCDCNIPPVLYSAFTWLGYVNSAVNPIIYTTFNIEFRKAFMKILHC

SMILES: COc1cccc2c1OCCC2CN1CCC2(CC1)C(=O)NCN2c1ccccc1 (stereo unspecified)
Ki [1]: > 1000 nM | Ki (D(2) dopamine receptor): > 1000 nM

SMILES: COc1ccc2c(c1)C(CN1CCC3(CC1)C(=O)NCN3c1ccccc1)CCO2 (stereo unspecified)
Ki [1]: 247 nM | Ki (D(2) dopamine receptor): 164 nM

SMILES: COc1cccc2c1C(CNCCCc1ccccc1)CCO2 (stereo unspecified)
Ki [1]: > 1000 nM | Ki (D(2) dopamine receptor): 279 nM

SMILES: COc1cccc2c1C(CN1CCC3(CC1)C(=O)NCN3c1ccccc1)CCO2 (stereo unspecified)
Ki [1]: 12 nM | Ki (D(2) dopamine receptor): 29 nM

SMILES: COc1cccc2c1OCCC2CNCCCc1ccccc1 (stereo unspecified)
Ki [1]: 7 nM | Ki (D(2) dopamine receptor): 620 nM

SMILES: COc1ccc2c(c1)OCCC2CNCCCc1ccccc1 (stereo unspecified)
Ki [1]: 28 nM | Ki (D(2) dopamine receptor): > 1000 nM

SMILES: COc1ccc2c(c1)OCCC2CN1CCC2(CC1)C(=O)NCN2c1ccccc1 (stereo unspecified)
Ki [1]: 611 nM | Ki (D(2) dopamine receptor): 274 nM

Ki [1]: 93 nM | Ki (D(2) dopamine receptor): > 1000 nM
SMILES: COc1ccc2c(c1)C(CNCCCc1ccccc1)CCO2 (stereo unspecified)
